Measured values published in patent US9630977B2, “Cephalosporin derivatives and pharmaceutical compositions thereof” (Legochem Biosciences, Inc., priority 2011, dated 2017).
In brackets after ≈: the same amount, converted by molar mass. Like-named read-outs stand apart in the source and are kept apart here.

Experiments:
Assay in all cases: In vitro antibacterial activity test (broth microdilution)
Type in all cases: cell-based
A. baumannii 46 = test system: A. baumannii 46
Procedure, shortened: (§1)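 MIC90 (ug/mL) determined by CLSI broth microdilution against clinical isolates, defined as lowest concentration inhibiting visible growth of 90% of organisms after incubation versus untreated control. Compounds tested from 0.0626 to 128 ug/mL final, with 2.5% (V/V) DMSO.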

A. baumannii 49 = test system: A. baumannii 49
Procedure, shortened: as §1

A. baumannii 52 = test system: A. baumannii 52
Procedure, shortened: as §1

[1] = test system: A. calcoaceticus ATCC15473
Procedure, shortened: as §1

E. cloacae β19 = test system: E. cloacae β19
Procedure, shortened: as §1

E. coli AG100 = test system: E. coli AG100
Procedure, shortened: as §1

E. coli β4 = test system: E. coli β4
Procedure, shortened: as §1

K. pneumoniae 2011E = test system: K. pneumoniae 2011E
Procedure, shortened: as §1

K. pneumoniae β10 = test system: K. pneumoniae β10
Procedure, shortened: as §1

K. pneumoniae β11 = test system: K. pneumoniae β11
Procedure, shortened: as §1

K. pneumoniae β13 = test system: K. pneumoniae β13
Procedure, shortened: as §1

K. pneumoniae β14 = test system: K. pneumoniae β14
Procedure, shortened: as §1

K. pneumoniae β9 = test system: K. pneumoniae β9
Procedure, shortened: as §1

M. catarrhalis 2524 = test system: M. catarrhalis 2524
Procedure, shortened: as §1

P. aeruginosa 1912E = test system: P. aeruginosa 1912E
Procedure, shortened: as §1

P. aeruginosa 37 = test system: P. aeruginosa 37
Procedure, shortened: as §1

P. aeruginosa 40 = test system: P. aeruginosa 40
Procedure, shortened: as §1

P. aeruginosa 43 = test system: P. aeruginosa 43
Procedure, shortened: as §1

P. aeruginosa 6065Y = test system: P. aeruginosa 6065Y
Procedure, shortened: as §1

[2] = Acinetobacter baumannii, 46, A. baumannii 46
[3] = Acinetobacter baumannii, 49, A. baumannii 49
[4] = Acinetobacter calcoaceticus, ATCC15473, A. calcoaceticus ATCC15473
[5] = Pseudomonas aeruginosa, 37, P. aeruginosa 37

| SMILES | MIC90 (A. baumannii 46; [2]) [µg/mL] | MIC90 (A. baumannii 49; [3]) [µg/mL] | MIC90 (A. baumannii 52; Acinetobacter baumannii, 52) [µg/mL] | MIC90 [1, 4] [µg/mL] | MIC90 (E. cloacae β19; Enterobacter cloacae) [µg/mL] | MIC90 (E. coli AG100; Escherichia coli, AG100) [µg/mL] | MIC90 (E. coli β4; Escherichia coli) [µg/mL] | MIC90 (K. pneumoniae 2011E; Klebsiella pneumoniae, 2011E) [µg/mL] | MIC90 (K. pneumoniae β10; Klebsiella pneumoniae) [µg/mL] | MIC90 (K. pneumoniae β11; Klebsiella pneumoniae) [µg/mL] | MIC90 (K. pneumoniae β13; Klebsiella pneumoniae) [µg/mL] | MIC90 (K. pneumoniae β14; Klebsiella pneumoniae) [µg/mL] | MIC90 (K. pneumoniae β9; Klebsiella pneumoniae) [µg/mL] | MIC90 (M. catarrhalis 2524; Moraxella catarrhalis, 2524) [µg/mL] | MIC90 (P. aeruginosa 1912E; Pseudomonas aeruginosa, 1912E) [µg/mL] | MIC90 (P. aeruginosa 37; [5]) [µg/mL] | MIC90 (P. aeruginosa 40; Pseudomonas aeruginosa, 40) [µg/mL] | MIC90 (P. aeruginosa 43; Pseudomonas aeruginosa, 43) [µg/mL] | MIC90 (P. aeruginosa 6065Y; Pseudomonas aeruginosa, 6065Y) [µg/mL] | further results |
| --- | --- | --- | --- | --- | --- | --- | --- | --- | --- | --- | --- | --- | --- | --- | --- | --- | --- | --- | --- | --- |
| CC(C)(ON=C(C(=O)NC1C(=O)N2C(C(=O)O)=C(C=CC[n+]3cnc(N)c(NC(=O)CCN)c3N)CSC12)c1csc(N)n1)C(=O)O.O=C([O-])C(F)(F)F (centres unmarked) [Compound 45] | – | – | – | – | – | – | – | – | – | – | – | – | – | – | – | – | – | – | – | MIC90 (A. baumannii 46; A. baumannii 46): 16 µg/mL; MIC90 (A. baumannii 49; A. baumannii 49): >128 µg/mL; MIC90 (A. baumannii 52; A. baumannii 52): >128 µg/mL; MIC90 ([1]; A. calcoaceticus ATCC15473): 2 µg/mL; MIC90 (E. cloacae β19): 0.25 µg/mL; MIC90 (E. coli AG100; E. coli AG100): 0.25 µg/mL; MIC90 (E. coli β4): 0.25 µg/mL; MIC90 (K. pneumoniae 2011E; K. pneumoniae 2011E): 0.5 µg/mL; MIC90 (K. pneumoniae β10; K. pneumoniae β10): 0.5 µg/mL; MIC90 (K. pneumoniae β11; K. pneumoniae β11): 16 µg/mL; MIC90 (K. pneumoniae β13; K. pneumoniae β13): 0.5 µg/mL; MIC90 (K. pneumoniae β14): 1 µg/mL; MIC90 (K. pneumoniae β9; K. pneumoniae β9): 0.5 µg/mL; MIC90 (M. catarrhalis 2524; M. catarrhalis 2524): <0.0625 µg/mL; MIC90 (P. aeruginosa 1912E): 4 µg/mL; MIC90 (P. aeruginosa 37; P. aeruginosa 37): 16 µg/mL; MIC90 (P. aeruginosa 40; P. aeruginosa 40): 8 µg/mL; MIC90 (P. aeruginosa 43; P. aeruginosa 43): >128 µg/mL; MIC90 (P. aeruginosa 6065Y): 16 µg/mL |
| CC(C)(O/N=C(\C(=O)N[C@@H]1C(=O)N2C(C(=O)[O-])=C(/C=C/C[n+]3cnc(N)c(NC(=O)CCN)c3N)CSC12)c1csc(N)n1)C(=O)O (some centres unmarked) [Compound 66] | 16 (≈ 23.2 µM) | > 128 | > 128 | 2 (≈ 2.9 µM) | 0.25 (≈ 0.362 µM) | 0.25 (≈ 0.362 µM) | 0.25 (≈ 0.362 µM) | 0.5 (≈ 0.725 µM) | 0.5 (≈ 0.725 µM) | 16 (≈ 23.2 µM) | 0.5 (≈ 0.725 µM) | 1 (≈ 1.45 µM) | 0.5 (≈ 0.725 µM) | < 0.0625 | 4 (≈ 5.8 µM) | 16 (≈ 23.2 µM) | 8 (≈ 11.6 µM) | > 128 | 16 (≈ 23.2 µM) | – |
| CC(C)(O/N=C(\C(=O)N[C@@H]1C(=O)N2C(C(=O)[O-])=C(/C=C/C[n+]3cnc(N)c(NCCCN)c3)CSC12)c1nc(N)sc1Cl)C(=O)O (some centres unmarked) [Compound 57] | 1 (≈ 1.44 µM) | 64 (≈ 92.1 µM) | 64 (≈ 92.1 µM) | 0.5 (≈ 0.719 µM) | 8 (≈ 11.5 µM) | 0.125 (≈ 0.18 µM) | 0.125 (≈ 0.18 µM) | 0.25 (≈ 0.36 µM) | 0.25 (≈ 0.36 µM) | 128 (≈ 184 µM) | 0.5 (≈ 0.719 µM) | 1 (≈ 1.44 µM) | 1 (≈ 1.44 µM) | < 0.0625 | 0.5 (≈ 0.719 µM) | 8 (≈ 11.5 µM) | 4 (≈ 5.75 µM) | > 128 | 16 (≈ 23 µM) | – |
| CC(C)(O/N=C(\C(=O)N[C@@H]1C(=O)N2C(C(=O)[O-])=C(/C=C/C[n+]3cnc(N)c(NCCCCN)c3)CSC12)c1nc(N)sc1Cl)C(=O)O (some centres unmarked) [Compound 58] | 32 (≈ 45.1 µM) | 32 (≈ 45.1 µM) | 64 (≈ 90.2 µM) | 4 (≈ 5.64 µM) | 8 (≈ 11.3 µM) | 0.5 (≈ 0.705 µM) | 2 (≈ 2.82 µM) | 2 (≈ 2.82 µM) | 2 (≈ 2.82 µM) | 8 (≈ 11.3 µM) | 4 (≈ 5.64 µM) | 4 (≈ 5.64 µM) | 8 (≈ 11.3 µM) | < 0.0625 | 8 (≈ 11.3 µM) | 32 (≈ 45.1 µM) | 16 (≈ 22.6 µM) | > 128 | 32 (≈ 45.1 µM) | – |
| CC(C)(O/N=C(\C(=O)N[C@@H]1C(=O)N2C(C(=O)[O-])=C(/C=C/C[n+]3cnc(N)c(NC(=O)CCCN)c3N)CSC12)c1nc(N)sc1Cl)C(=O)O (some centres unmarked) [Compound 67] | 64 (≈ 86.7 µM) | 64 (≈ 86.7 µM) | 64 (≈ 86.7 µM) | 4 (≈ 5.42 µM) | 32 (≈ 43.3 µM) | 0.5 (≈ 0.677 µM) | 2 (≈ 2.71 µM) | 2 (≈ 2.71 µM) | 4 (≈ 5.42 µM) | 8 (≈ 10.8 µM) | 2 (≈ 2.71 µM) | 4 (≈ 5.42 µM) | 8 (≈ 10.8 µM) | < 0.0625 | 4 (≈ 5.42 µM) | 16 (≈ 21.7 µM) | 16 (≈ 21.7 µM) | > 128 | 32 (≈ 43.3 µM) | – |
